Some test systems named below: RPMI-8226; HCT-15; SNB-19; SK-MEL-2; DU-145; SW-620; Hs-578T; COLO 205; UACC-62; OVCAR-5; TK-10; IGROV-1; SK-MEL-5; OVCAR-3; NCI/ADR-RES; T47D; PC-3; NCI-H226; HL-60.
Test in all cases: inhibition of tumour cell growth, NCI panel, 48 h

The values that follow come from ChEMBL document CHEMBL1201862, “PubChem BioAssay data set” (2004).

Structures are written as SMILES.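 Step 1: Grow cells in 96-well plates. Step 2: Expose to compound for 48 hours at 5 concentrations. Step 3: Interpolate endpoints linearly; if unreached, use highest concentration. GI50 = concentration required for 50% inhibition of growth.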 Calls of active or inactive are those of the source. No stated cut-off is given here; in the data, active = GI50 up to about 1.1 µM and inactive = higher.

Consider `CC(C)(C)c1ccc(O)c(C[N+](C)(C)C)c1`, for which the GI50 with RPMI-8226 is 63.2 µM (inactive); in the experiment with HCT-15 it was over 100 µM; in the experiment with SNB-19 it was > 100 µM (inactive); in the experiment on SK-MEL-2 it was > 100 µM (inactive); in the experiment with DU-145, > 100 µM (inactive); in the experiment on SW-620 it was > 100 µM (inactive). Besides, the GI50 in the experiment on Hs-578T, with COLO 205, with UACC-62, in the experiment with OVCAR-5, with TK-10 and in the experiment on IGROV-1 was > 100 µM (inactive) each time. Also, the GI50 in the experiment on SK-MEL-5 was 49.4 µM (inactive); with OVCAR-3, 68.9 µM (inactive); in the experiment with NCI/ADR-RES, > 100 µM (inactive); in the experiment with T47D, > 100 µM (inactive); in the experiment with PC-3, > 100 µM (inactive).

Take `CC(=O)N1N=C(N)CC1=O`: the GI50 is over 100 µM with HCT-15; > 100 µM (inactive) in the experiment on SNB-19; > 100 µM (inactive) in the experiment with SK-MEL-2; > 100 µM (inactive) in the experiment with DU-145; > 100 µM (inactive) in the experiment with SW-620; > 100 µM (inactive) with Hs-578T. For the same molecule, the GI50 in the experiment with NCI-H226, with COLO 205, in the experiment with UACC-62, in the experiment with OVCAR-5, with HL-60 and with TK-10 was > 100 µM (inactive) each time. The GI50 in the experiment with IGROV-1, in the experiment on SK-MEL-5, in the experiment on OVCAR-3, in the experiment on NCI/ADR-RES, with T47D and in the experiment with PC-3 was > 100 µM (inactive) each time.

Take `O=C(/C=C/c1ccccc1)CCC1C(=O)NC(=S)NC1=O`: the GI50 was over 100 µM with HCT-15; > 100 µM (inactive) in the experiment with SNB-19; > 100 µM (inactive) in the experiment with SK-MEL-2; > 100 µM (inactive) with DU-145; > 100 µM (inactive) in the experiment with SW-620; > 100 µM (inactive) with Hs-578T. The GI50 with NCI-H226, with COLO 205, with UACC-62, with OVCAR-5, in the experiment with SK-MEL-5 and in the experiment with OVCAR-3 was > 100 µM (inactive) in each case. Also, the GI50 in the experiment on NCI/ADR-RES, in the experiment on T47D and in the experiment with PC-3 was > 100 µM (inactive) throughout.

`CCNCCCNc1c2ccccc2nc2ccccc12`: the GI50 was 0.366 µM in the experiment on HCT-15; 0.499 µM (active) in the experiment on SNB-19; 0.518 µM (active) in the experiment with SK-MEL-2; 0.525 µM (active) in the experiment with DU-145; 0.278 µM (active) with SW-620; 0.653 µM (active) with Hs-578T. Also, the GI50 with COLO 205 was 0.232 µM (active); in the experiment on UACC-62, 0.387 µM (active); in the experiment with OVCAR-5, 0.278 µM (active); with HL-60 it was 0.493 µM (active); with TK-10, 0.571 µM (active); in the experiment on IGROV-1 it was 0.48 µM (active). Also, the GI50 with SK-MEL-5 was 0.375 µM (active); with OVCAR-3 it was 0.326 µM (active); with NCI/ADR-RES it was 0.916 µM (active); in the experiment with T47D, 0.502 µM (active); in the experiment on PC-3, 0.245 µM (active).

Consider `CC(=O)CCC1(C(=O)OCC(C)C)CCCC1=O` (stereo not given), for which the GI50 in the experiment on HCT-15 was over 100 µM; in the experiment with SNB-19 it was > 100 µM (inactive); in the experiment with SK-MEL-2 it was > 100 µM (inactive); with DU-145 it was > 100 µM (inactive); with SW-620 it was > 100 µM (inactive); in the experiment on Hs-578T, > 100 µM (inactive). Besides, the GI50 with NCI-H226, in the experiment with COLO 205, in the experiment with UACC-62, with OVCAR-5, in the experiment on HL-60 and in the experiment with TK-10 was > 100 µM (inactive) each time. Besides, the GI50 in the experiment with IGROV-1 is > 100 µM (inactive); with SK-MEL-5, > 100 µM (inactive); in the experiment on OVCAR-3, 63.4 µM (inactive); with NCI/ADR-RES, > 100 µM (inactive); with T47D it was > 100 µM (inactive); in the experiment with PC-3 it was > 100 µM (inactive).

`Cc1cc(S(=O)(=O)N=C2N(Cc3ccccc3)CCN2Cc2ccccc2)c(S)cc1Cl`: the GI50 in the experiment with RPMI-8226 was > 100 µM (inactive); in the experiment on HCT-15, over 100 µM; with SNB-19, > 100 µM (inactive); in the experiment with DU-145, > 100 µM (inactive); in the experiment with SW-620, > 100 µM (inactive); with Hs-578T, > 100 µM (inactive). The GI50 with NCI-H226 is 85.5 µM (inactive); with COLO 205 it was > 100 µM (inactive); in the experiment with UACC-62 it was > 100 µM (inactive); with OVCAR-5, > 100 µM (inactive); with HL-60 it was > 100 µM (inactive); with TK-10, > 100 µM (inactive). For the same molecule, the GI50 with IGROV-1 is > 100 µM (inactive); in the experiment on SK-MEL-5, > 100 µM (inactive); with OVCAR-3, > 100 µM (inactive); with NCI/ADR-RES, > 100 µM (inactive); in the experiment on T47D it was 10.8 µM (inactive); in the experiment with PC-3, 27.7 µM (inactive).

On to `CC(=O)OCC1OC(n2c(-c3ccccc3)c(/N=N/c3ccccc3)c(C)c(C#N)c2=S)C(OC(C)=O)C(OC(C)=O)C1OC(C)=O` (stereo not given), for which the GI50 is > 100 µM (inactive) in the experiment with RPMI-8226; over 100 µM in the experiment on HCT-15; > 100 µM (inactive) in the experiment with SNB-19; > 100 µM (inactive) with SK-MEL-2; > 100 µM (inactive) with DU-145; > 100 µM (inactive) in the experiment on SW-620. Besides, the GI50 in the experiment on Hs-578T, with COLO 205, with UACC-62, with OVCAR-5, with HL-60 and in the experiment with TK-10 was > 100 µM (inactive) each time. Moreover, the GI50 with IGROV-1, with SK-MEL-5, with OVCAR-3, in the experiment with NCI/ADR-RES, in the experiment on T47D and in the experiment with PC-3 was > 100 µM (inactive) each time.

Consider `Cc1cc(Cl)ccc1NC(=O)/C(Cl)=C(/Cl)C(=O)O`, for which the GI50 with RPMI-8226 is 24 µM (inactive); with HCT-15, 18.7 µM; with SNB-19, > 100 µM (inactive); with DU-145 it was 23.9 µM (inactive); in the experiment with SW-620, 21 µM (inactive); with Hs-578T it was 26.4 µM (inactive). Besides, the GI50 is 28.4 µM (inactive) in the experiment on COLO 205; 21.5 µM (inactive) in the experiment with UACC-62; 19.5 µM (inactive) in the experiment on OVCAR-5; 25.7 µM (inactive) in the experiment on HL-60; 17.5 µM (inactive) in the experiment on TK-10; 50.7 µM (inactive) in the experiment with SK-MEL-5. The GI50 with OVCAR-3 was 18.4 µM (inactive); in the experiment on NCI/ADR-RES, 29 µM (inactive); with T47D, 22.8 µM (inactive); with PC-3, 21.4 µM (inactive).

Turning to `COc1c(O)cc2ccnc3c2c1N(C)C=C3`, the GI50 in the experiment with RPMI-8226 is > 100 µM (inactive); with HCT-15 it was over 100 µM; with SNB-19 it was > 100 µM (inactive); in the experiment with SK-MEL-2, > 100 µM (inactive); with DU-145, > 100 µM (inactive); in the experiment on SW-620 it was 86.1 µM (inactive). The GI50 with Hs-578T is > 100 µM (inactive); with NCI-H226, > 100 µM (inactive); in the experiment on COLO 205, 94.6 µM (inactive); with UACC-62, > 100 µM (inactive); with OVCAR-5 it was > 100 µM (inactive); in the experiment with TK-10, > 100 µM (inactive). The GI50 with IGROV-1, in the experiment with OVCAR-3, in the experiment on NCI/ADR-RES, with T47D and in the experiment on PC-3 was > 100 µM (inactive) in each case.

Take `O=C1C=Cc2cscc21`: the GI50 in the experiment with RPMI-8226 was 20.4 µM (inactive); in the experiment on HCT-15, 22.7 µM; with SNB-19 it was 78.2 µM (inactive); in the experiment on SK-MEL-2 it was 79.1 µM (inactive); in the experiment with DU-145, 34.3 µM (inactive); with SW-620, 33.3 µM (inactive). Also, the GI50 in the experiment with Hs-578T was > 100 µM (inactive); with COLO 205, 47.4 µM (inactive); with UACC-62, > 100 µM (inactive); in the experiment on HL-60, 29 µM (inactive); in the experiment on TK-10, 42.5 µM (inactive); with IGROV-1 it was 32.4 µM (inactive). Also, the GI50 in the experiment with SK-MEL-5 is 81.7 µM (inactive); in the experiment with OVCAR-3, 21.5 µM (inactive); in the experiment on NCI/ADR-RES, 28.8 µM (inactive); with T47D it was 27.5 µM (inactive); with PC-3, 42 µM (inactive).

`COc1cc([N+](=O)[O-])c(OC)c2c(Nc3ccc(S(=O)(=O)O)c4cc(S(=O)(=O)O)cc(S(=O)(=O)O)c34)cc(C)nc12`: the GI50 in the experiment on SK-MEL-2, in the experiment with DU-145, with SW-620, in the experiment with Hs-578T, with NCI-H226 and with COLO 205 was > 100 µM (inactive) each time. The GI50 in the experiment with UACC-62, in the experiment with OVCAR-5, in the experiment with HL-60, in the experiment on TK-10, with IGROV-1 and with SK-MEL-5 was > 100 µM (inactive) throughout. Moreover, the GI50 in the experiment with OVCAR-3, in the experiment with NCI/ADR-RES, with T47D and in the experiment on PC-3 was > 100 µM (inactive) in each case.

Regarding `CC(NP(=O)(c1ccccc1)c1ccccc1)c1ccccc1` (stereo not given), the GI50 in the experiment on RPMI-8226 was > 100 µM (inactive); in the experiment on HCT-15 it was over 100 µM; in the experiment with SNB-19, > 100 µM (inactive); with DU-145, > 100 µM (inactive); in the experiment with SW-620, > 100 µM (inactive); in the experiment with Hs-578T, > 100 µM (inactive). In addition, the GI50 with NCI-H226, with COLO 205, in the experiment with UACC-62, with OVCAR-5, in the experiment on HL-60 and with TK-10 was > 100 µM (inactive) in each case. Moreover, the GI50 with IGROV-1, in the experiment with SK-MEL-5, in the experiment with OVCAR-3, with NCI/ADR-RES, in the experiment with T47D and in the experiment on PC-3 was > 100 µM (inactive) throughout.
